# Patent publication US6423729B1, “Therapeutic or prophylactic agent for glomerulopathy” (Shionogi & Co., Ltd., priority 1997, dated 2002)
# Target: T1, MMP-9 (Homo sapiens, UniProt P14780)
# T1 construct: made in house; host or cells: HT1080 human fibrosarcoma cells; endogenous protein secreted after TPA treatment and purified from conditioned medium
# Assay: Assay for inhibitory activity against MMP-9
# Type: biochemical
# Procedure: (§1) Assay for Inhibitory Activities of MMP-9 and MMP-2
# (§2) The enzymatic activity was analyzed on the method described by Knight, C. G., et al. (C. Graham Knight., Frances Willenbrock and Gillian Murphy: A novel coumarin-labelled peptide for sensitive continuous assays of the matrix metalloproteinases. FEBS Lett., 296 (1992) 263-266).
# MMP-9 was purified by using a combination of procedures described in previous reports as follows. Yasunori Okada, Yukio Gonoji, Katsumi Naka, Katsuro Tomita, Isao Nakanishi, Kazushi Iwata and Taro Hayakawa: Matrix metalloproteinase 9 (92-kDa gelatinase/type IV collagenase) from HT1080 human fibrosarcoma cells. Purification and activation of the precursor and enzymic properties. J. Biol. Chem., 267 (1992) 21712-21719. Yasunori Okada, Tatsuhisa Morodomi, Jan J, Enghild, Ko Suzuki, Atsushi Yasui, Isao Nakanishi, Guy Salvesen and Hideaki Nagase: Matrix metalloproteinase 2 from human rheumatoid synovial fibroblasts. Purification and activation of the precursor and enzymic properties. Eur. J. Biochem. 194 (1990) 721-730. Robin V Ward, Rosalind M Hembry, John J Reynolds and Gillian Murphy: The purification of tissue inhibitor of metalloproteinase-2 from its 72 kDa progelatinase complex. Biochem. J. 278 (1991) 179-187.
# Briefly, human fibrosarcoma ATCC HT1080 cell line was cultured to confluent in Dulbecco's Modified Medium (DMEM) containing 10% fetal-calf serum at 37° C. for 48 hours. Subsequently, the medium of confluent culture was changed to serum-free DMEM medium. To obtain MMP-9, Phorbol-12-myristate-13-acetate (TPA) must be added to this serum-free DMEM medium at a concentration of 50 ng/ml. The TPA treated medium was centrifuged at 3000 rpm for 15 min and the supernatant was concentrated to 450 ml by a Toyo-Roshi UP-20 apparatus with an ultrafiltration membrane. Then, proMMP-9 in this concentrated solution was purified by using columns of Gelatin-Sepharose and Concanavalin A-Sepharose. The pool containing proMMP-9 was dialyzed, concentrated (Toyo-Roshi UP-20) and applied to columns of Sephacryl S-200 and Green A matrix for the separation from TIMPs. The obtained proMMP-9 fraction was activated by TPCK-Trypsin (final conc. […] reaction mix.) for the assay.
# (§3) MOCAc-Pro-Leu-Gly-Leu-A2pr(Dnp)-Ala-Arg-NH2 as a substrate was purchased from Petide Institute(Osaka pref., Japan). This substrate was dissolved in DMSO at a concentration of 1 mM.
# (§4) Reaction buffer consists of 50 mM Tris-HCl buffer (pH 7.5) containing 10 mM CaCl2, 0.3 M NaCl, 0.005% Brij35 and 0.01% NaN3.
# Assay Method of Inhibitory Activity Against MMP-9:
# 1.0 μl of a tested compound in DMSO is added to 48.0 μl of a reaction buffer containing 0.08 μl of an enzyme solution. After standing for 60 minutes at room temperature, the reaction was started by adding 1.0 μl of a substrate solution. After incubation for 60 minutes at room temperature, 100 μl of 3% (v/v) AcOH for reaction stopping and measured a fluorescence with excitation and emission at 320 nm and 405 nm, respectively (Spectrophotofluorometer; Fluoroscan Ascent (Labsystem)).
# (§5) The measurement of the inhibitory activities (IC50) was carried out in a following four methods;
# (§6) A) Reaction with substrate, enzyme and inhibitor
# (§7) B) Reaction with substrate and inhibitor, without enzyme
# (§8) C) Reaction with substrate and enzyme, without inhibitor
# (§9) D) Reaction with substrate only
# (§10) IC50 values were calculated by using a following formula and each fluorescence values of above four methods (A to D).
# (§11) % inhibition={1−(A−B)/(C−D)}×100
# (§12) IC50 means the concentration required to inhibit 50% of the enzyme activity.
# T1 sequence (P14780 107-707 limits assumed): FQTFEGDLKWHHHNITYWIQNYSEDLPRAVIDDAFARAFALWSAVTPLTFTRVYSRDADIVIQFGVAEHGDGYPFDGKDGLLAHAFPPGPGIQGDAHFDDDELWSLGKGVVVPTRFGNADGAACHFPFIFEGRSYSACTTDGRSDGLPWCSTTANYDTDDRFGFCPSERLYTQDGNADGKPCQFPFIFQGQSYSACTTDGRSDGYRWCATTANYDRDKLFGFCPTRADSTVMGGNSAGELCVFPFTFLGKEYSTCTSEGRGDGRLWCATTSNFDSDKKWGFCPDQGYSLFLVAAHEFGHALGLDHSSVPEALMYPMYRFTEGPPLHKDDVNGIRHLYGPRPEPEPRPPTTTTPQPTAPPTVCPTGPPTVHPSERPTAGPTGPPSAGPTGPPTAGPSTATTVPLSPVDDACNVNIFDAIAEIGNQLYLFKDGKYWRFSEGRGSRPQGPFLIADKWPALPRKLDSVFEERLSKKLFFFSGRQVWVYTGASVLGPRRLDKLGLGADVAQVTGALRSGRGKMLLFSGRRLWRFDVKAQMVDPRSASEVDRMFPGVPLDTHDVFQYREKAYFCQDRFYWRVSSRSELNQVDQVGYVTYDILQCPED
row,Structure (SMILES),IC50 [nM]
1,CC(C)[C@@H](NS(=O)(=O)c1ccc(-n2nnc(-c3ccc(F)cc3)n2)cc1)C(=O)O [Compound 106],104
2,CCCCc1ccc(-c2nnn(-c3ccc(S(=O)(=O)N[C@@H](C(=O)O)C(C)C)cc3)n2)cc1 [Compound 121],148
3,Cc1ccc(-c2ccc(-c3ccc(S(=O)(=O)N[C@@H](C(=O)O)C(C)C)cc3)s2)cc1 [Compound 103],27.8
4,CCc1ccc(-c2nnn(-c3ccc(S(=O)(=O)N[C@H](CC(C)C)C(=O)O)cc3)n2)cc1 [Compound 113],71.8
5,CCc1ccc(-c2nnn(-c3ccc(S(=O)(=O)N[C@@H](Cc4ccccc4)C(=O)O)cc3)n2)cc1 [Compound 110],94.7
6,CC(C)[C@@H](NS(=O)(=O)c1ccc(-n2nnc(-c3ccc(N(C)C)cc3)n2)cc1)C(=O)O [Compound 119],45.5
7,CC(C)[C@@H](NS(=O)(=O)c1ccc(-c2nnn(-c3ccc(F)cc3)n2)s1)C(=O)O [Compound 97],136
8,CSc1ccc(-c2nnn(-c3ccc(S(=O)(=O)N[C@@H](C(=O)O)C(C)C)cc3)n2)cc1 [Compound 120],5.82
9,Cc1ccc(C#Cc2ccc(S(=O)(=O)N[C@H](Cc3ccccc3)C(=O)O)s2)s1 [Compound 87],10
10,CCOc1ccc(-c2nnn(-c3ccc(S(=O)(=O)N[C@@H](C(=O)O)C(C)C)cc3)n2)cc1 [Compound 118],61.6
11,Cc1ccc(-n2nnc(-c3ccc(S(=O)(=O)N[C@@H](C(=O)O)C(C)C)s3)n2)cc1 [Compound 96],36.2
12,CCc1ccc(-c2nnn(-c3ccc(S(=O)(=O)N[C@H](C)C(=O)O)cc3)n2)cc1 [Compound 117],31
13,CCc1ccc(-c2nnn(-c3ccc(S(=O)(=O)N[C@H](C(=O)O)C(C)C)cc3)n2)cc1 [Compound 112],126
14,CCc1ccc(-c2nnn(-c3ccc(S(=O)(=O)N[C@@H](C(=O)O)C(C)C)cc3)n2)cc1 [Compound 107],8.25
15,CC(C)[C@@H](NS(=O)(=O)c1ccc(-c2ncc(-c3ccccc3)o2)s1)C(=O)O [Compound 98],787
16,O=C(O)[C@@H](Cc1ccccc1)NS(=O)(=O)c1ccc(-n2nnc(-c3ccc(F)cc3)n2)cc1 [Compound 105],304
17,O=C(O)[C@@H](Cc1ccccc1)NS(=O)(=O)c1ccc(-n2nnc(-c3ccccc3)n2)cc1 [Compound 115],4610
18,O=C(O)[C@@H](Cc1c[nH]c2ccccc12)NS(=O)(=O)c1ccc(-n2nnc(-c3ccc(F)cc3)n2)cc1 [Compound 111],104

# Test system: not given
# Assay: not given
row,Structure (SMILES),melting point [°C]
1,CC(C)[C@@H](NS(=O)(=O)c1ccc(-n2nnc(-c3ccc(F)cc3)n2)cc1)C(=O)O [Compound 106],204 to 205
2,CCCCc1ccc(-c2nnn(-c3ccc(S(=O)(=O)N[C@@H](C(=O)O)C(C)C)cc3)n2)cc1 [Compound 121],191 to 193
3,CCc1ccc(-c2nnn(-c3ccc(S(=O)(=O)N[C@H](CC(C)C)C(=O)O)cc3)n2)cc1 [Compound 113],153 to 154
4,CCc1ccc(-c2nnn(-c3ccc(S(=O)(=O)N[C@@H](Cc4ccccc4)C(=O)O)cc3)n2)cc1 [Compound 110],188 to 190
5,CC(C)[C@@H](NS(=O)(=O)c1ccc(-n2nnc(-c3ccc(N(C)C)cc3)n2)cc1)C(=O)O [Compound 119],185 to 188
6,CC(C)[C@@H](NS(=O)(=O)c1ccc(-c2nnn(-c3ccc(F)cc3)n2)s1)C(=O)O [Compound 97],184 to 186
7,CSc1ccc(-c2nnn(-c3ccc(S(=O)(=O)N[C@@H](C(=O)O)C(C)C)cc3)n2)cc1 [Compound 120],194 to 196
8,Cc1ccc(C#Cc2ccc(S(=O)(=O)N[C@H](Cc3ccccc3)C(=O)O)s2)s1 [Compound 87],158 to 160
9,CCOc1ccc(-c2nnn(-c3ccc(S(=O)(=O)N[C@@H](C(=O)O)C(C)C)cc3)n2)cc1 [Compound 118],187 to 189
10,Cc1ccc(-n2nnc(-c3ccc(S(=O)(=O)N[C@@H](C(=O)O)C(C)C)s3)n2)cc1 [Compound 96],178 to 179
11,CCc1ccc(-c2nnn(-c3ccc(S(=O)(=O)N[C@H](C)C(=O)O)cc3)n2)cc1 [Compound 117],155 to 157
12,CCc1ccc(-c2nnn(-c3ccc(S(=O)(=O)N[C@H](C(=O)O)C(C)C)cc3)n2)cc1 [Compound 112],179 to 181
13,CCc1ccc(-c2nnn(-c3ccc(S(=O)(=O)N[C@@H](C(=O)O)C(C)C)cc3)n2)cc1 [Compound 107],186 to 187
14,CC(C)[C@@H](NS(=O)(=O)c1ccc(-c2ncc(-c3ccccc3)o2)s1)C(=O)O [Compound 98],220 to 223
15,O=C(O)[C@@H](Cc1ccccc1)NS(=O)(=O)c1ccc(-n2nnc(-c3ccc(F)cc3)n2)cc1 [Compound 105],190 to 192
16,O=C(O)[C@@H](Cc1ccccc1)NS(=O)(=O)c1ccc(-n2nnc(-c3ccccc3)n2)cc1 [Compound 115],191 to 192
17,O=C(O)[C@@H](Cc1c[nH]c2ccccc12)NS(=O)(=O)c1ccc(-n2nnc(-c3ccc(F)cc3)n2)cc1 [Compound 111],113 to 115

# Target: T2, MMP-2 (Homo sapiens, UniProt P08253)
# T2 construct: purchased Yagai (Yamagata pref., Japan)
# T2 sequence (P08253 110-660): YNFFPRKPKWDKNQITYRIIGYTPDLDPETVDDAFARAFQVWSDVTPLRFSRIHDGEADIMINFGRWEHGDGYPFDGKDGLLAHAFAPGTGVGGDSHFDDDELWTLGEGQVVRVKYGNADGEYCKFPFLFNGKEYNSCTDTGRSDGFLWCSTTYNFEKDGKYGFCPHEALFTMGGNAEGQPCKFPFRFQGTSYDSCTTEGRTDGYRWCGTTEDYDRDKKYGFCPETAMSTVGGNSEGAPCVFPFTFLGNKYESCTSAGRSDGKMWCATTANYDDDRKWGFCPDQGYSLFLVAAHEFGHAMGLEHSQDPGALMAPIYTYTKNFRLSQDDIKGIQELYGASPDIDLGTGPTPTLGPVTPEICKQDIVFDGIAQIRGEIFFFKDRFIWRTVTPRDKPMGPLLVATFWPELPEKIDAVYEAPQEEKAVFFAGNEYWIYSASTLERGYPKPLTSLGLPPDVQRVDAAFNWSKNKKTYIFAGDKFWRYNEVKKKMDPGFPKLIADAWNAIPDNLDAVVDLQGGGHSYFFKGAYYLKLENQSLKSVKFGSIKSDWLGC
# Assay: Assay for inhibitory activity against MMP-2
# Type: biochemical
# Procedure: as §1, §2
# MMP-2 was purchased from Yagai (Yamagata pref., Japan).
# as §3, §4
# Assay Method of Inhibitory Activity Against MMP-2:
# 1.0 μl of a tested compound in DMSO is added to 48.0 μl of a reaction buffer containing 0.05 μl of an enzyme solution. After standing for 60 minutes at room temperature, the reaction was started by adding 1.0 μl of a substrate solution. After incubation for 60 minutes at room temperature, 100 μl of 3% (v/v) AcOH for reaction stopping and measured a fluorescence with excitation and emission at 320 nm and 405 nm, respectively (Spectrophotofluorometer; Fluoroscan Ascent (Labsystem)).
# as §5, §6, §7, §8, §9, §10, §11, §12
row,Structure (SMILES),IC50 [nM]
1,CC(C)[C@@H](NS(=O)(=O)c1ccc(-n2nnc(-c3ccc(F)cc3)n2)cc1)C(=O)O [Compound 106],28.3
2,CCCCc1ccc(-c2nnn(-c3ccc(S(=O)(=O)N[C@@H](C(=O)O)C(C)C)cc3)n2)cc1 [Compound 121],0.561
3,Cc1ccc(-c2ccc(-c3ccc(S(=O)(=O)N[C@@H](C(=O)O)C(C)C)cc3)s2)cc1 [Compound 103],6.12
4,CCc1ccc(-c2nnn(-c3ccc(S(=O)(=O)N[C@H](CC(C)C)C(=O)O)cc3)n2)cc1 [Compound 113],5.7
5,CCc1ccc(-c2nnn(-c3ccc(S(=O)(=O)N[C@@H](Cc4ccccc4)C(=O)O)cc3)n2)cc1 [Compound 110],25.7
6,CC(C)[C@@H](NS(=O)(=O)c1ccc(-n2nnc(-c3ccc(N(C)C)cc3)n2)cc1)C(=O)O [Compound 119],1.69
7,CC(C)[C@@H](NS(=O)(=O)c1ccc(-c2nnn(-c3ccc(F)cc3)n2)s1)C(=O)O [Compound 97],15.6
8,CSc1ccc(-c2nnn(-c3ccc(S(=O)(=O)N[C@@H](C(=O)O)C(C)C)cc3)n2)cc1 [Compound 120],0.919
9,Cc1ccc(C#Cc2ccc(S(=O)(=O)N[C@H](Cc3ccccc3)C(=O)O)s2)s1 [Compound 87],3.69
10,CCOc1ccc(-c2nnn(-c3ccc(S(=O)(=O)N[C@@H](C(=O)O)C(C)C)cc3)n2)cc1 [Compound 118],2.16
11,Cc1ccc(-n2nnc(-c3ccc(S(=O)(=O)N[C@@H](C(=O)O)C(C)C)s3)n2)cc1 [Compound 96],1.5
12,CCc1ccc(-c2nnn(-c3ccc(S(=O)(=O)N[C@H](C)C(=O)O)cc3)n2)cc1 [Compound 117],2.62
13,CCc1ccc(-c2nnn(-c3ccc(S(=O)(=O)N[C@H](C(=O)O)C(C)C)cc3)n2)cc1 [Compound 112],28.4
14,CCc1ccc(-c2nnn(-c3ccc(S(=O)(=O)N[C@@H](C(=O)O)C(C)C)cc3)n2)cc1 [Compound 107],3.51
15,CC(C)[C@@H](NS(=O)(=O)c1ccc(-c2ncc(-c3ccccc3)o2)s1)C(=O)O [Compound 98],95.3
16,O=C(O)[C@@H](Cc1ccccc1)NS(=O)(=O)c1ccc(-n2nnc(-c3ccc(F)cc3)n2)cc1 [Compound 105],41.4
17,O=C(O)[C@@H](Cc1ccccc1)NS(=O)(=O)c1ccc(-n2nnc(-c3ccccc3)n2)cc1 [Compound 115],181
18,O=C(O)[C@@H](Cc1c[nH]c2ccccc12)NS(=O)(=O)c1ccc(-n2nnc(-c3ccc(F)cc3)n2)cc1 [Compound 111],10.7
